These are literature values, as cited in patent US20030129242A1, “Sterile filtered nanoparticulate formulations of budesonide and beclomethasone having tyloxapol as a surface stabilizer” (priority 2002, published 2003).

With `CC1(C)O[C@@H]2C[C@H]3[C@@H]4C[C@H](F)C5=CC(=O)C=C[C@]5(C)[C@H]4[C@@H](O)C[C@]3(C)[C@]2(C(=O)CO)O1` [Flunisolide, 6α-fluoro-11β, 16α, 17,21-tetrahydroxy-pregna-1,4-diene-3,20-dione cyclic-16,17-acetal with acetone], the solubility in water result is given as “practically insoluble”.
Turning to `CCCC1O[C@@H]2C[C@H]3C4CCC5=CC(=O)C=CC5(C)[C@H]4[C@@H](O)CC3(C)C2(C(=O)CO)O1` (mixture of isomers) [Budesonide, (RS)-11,16, 17,21-Tetrahydroxy-pregna-1,4-diene-3,20-dione cyclic 16,17-acetal with butraldehyde], the solubility in water entry is reported as “practically insoluble”. Besides, under “chloroform”, the solubility in chloroform result was “freely soluble”. Moreover, for the setting “ethanol”, the solubility in ethanol result is given as “sparingly soluble”. Also, the solubility in heptane result (heptane) is “practically insoluble”.
